Data on seven molecules can be found in patent US9321721B2, “Kinase inhibitors” (Allergan, Inc., priority 2013, dated 2016).

“Also recorded” adds a separate entry of the source.

The target in the assay is VEGFR2 (purified cytoplasmic domain KDR protein) (Homo sapiens (Human), UniProt P35968). The assay is described as follows: VEGFR2 Kinase Assay (biochemical KDR kinase assay, ELISA readout). As to conditions: for IC50: 2.7 μM ATP, poly-Glu-Tyr (4:1) substrate, 15 minute incubation at 30° C.; for VEGFR2 potency as shown in this assay (in words): qualitative ranking based on the Table 2 data. As for the experimental part:
VEGFR2 kinase potency of select analogs was determined by the following assay:
Biochemical KDR kinase assays were performed in 96 well microtiter plates that were coated overnight with 75 μg/well of poly-Glu-Tyr (4:1) in 10 mM Phosphate Buffered Saline (PBS), pH 7.4. The coated plates were washed with 2 mls per well PBS+0.05% Tween-20 (PBS-T), blocked by incubation with PBS containing 1% BSA, then washed with 2 mls per well PBS-T prior to starting the reaction. Reactions were carried out in 100 μL reaction volumes containing 2.7 μM ATP in kinase buffer (50 mM Hepes buffer pH 7.4, 20 mM MgCl2, 0.1 mM MnCl2 and 0.2 mM Na3VO4). Test compounds were reconstituted in 100% DMSO and added to the reaction to give a final DMSO concentration of 5%. Reactions were initiated by the addition 20 ul per well of kinase buffer containing 200-300 ng purified cytoplasmic domain KDR protein (BPS Bioscience, San Diego, Calif.). Following a 15 minute incubation at 30° C., the reactions were washed 2 mls per well PBS-T. 100 μl of a monoclonal anti-phosphotyrosine antibody-peroxidase conjugate diluted 1:10,000 in PBS-T was added to the wells for 30 minutes. Following a 2 mls per well wash with PBS-Tween-20, 100 μl of O-Phenylenediamine Dihydrochloride in phosphate-citrate buffer, containing urea hydrogen peroxide, was added to the wells for 7-10 minutes as a colorimetric substrate for the peroxidase. The reaction was terminated by the addition of 100 μl of 2.5N H2SO4 to each well and read using a microplate ELISA reader set at 492 nm. IC50 values for compound inhibition were calculated directly from graphs of optical density (arbitrary units) versus compound concentration following subtraction of blank values.
For orientation: ELISA stands for enzyme-linked immunosorbent assay.

Chain of VEGFR2 (purified cytoplasmic domain KDR protein) (P35968 786-1356): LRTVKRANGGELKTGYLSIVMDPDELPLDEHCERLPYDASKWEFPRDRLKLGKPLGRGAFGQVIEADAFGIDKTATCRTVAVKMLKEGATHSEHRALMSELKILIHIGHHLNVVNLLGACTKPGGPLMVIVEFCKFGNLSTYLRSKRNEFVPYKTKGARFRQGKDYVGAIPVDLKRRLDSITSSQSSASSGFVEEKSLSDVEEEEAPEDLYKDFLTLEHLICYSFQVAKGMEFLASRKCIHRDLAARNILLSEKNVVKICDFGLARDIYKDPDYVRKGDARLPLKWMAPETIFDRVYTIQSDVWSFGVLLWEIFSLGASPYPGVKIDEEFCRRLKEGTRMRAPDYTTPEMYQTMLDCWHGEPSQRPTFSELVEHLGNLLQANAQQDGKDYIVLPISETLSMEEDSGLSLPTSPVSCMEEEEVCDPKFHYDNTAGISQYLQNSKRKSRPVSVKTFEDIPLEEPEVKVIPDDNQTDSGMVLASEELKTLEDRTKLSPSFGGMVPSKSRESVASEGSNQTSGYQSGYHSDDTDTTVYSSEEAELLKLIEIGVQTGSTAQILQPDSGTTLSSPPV

What is called IC50 is the point on the concentration scale where inhibition reaches its midpoint. A high value points to lower potency. Take `NC(=O)/C=C(/c1ccccc1)c1ccc(NC(=O)Nc2cc(C(F)(F)F)ccc2F)cc1` [Example 1, (2Z)-3-{4-[({[2-fluoro-5-(trifluoromethyl)phenyl]amino}carbonyl)amino]phenyl}-3-phenylacrylamide]: the 50% inhibitory concentration (IC50) came to 626 nM and the “VEGFR2 potency as shown in this assay (in words)” value (“VEGFR2 potency as shown” below) is reported as “excellent VEGFR2 potency”.
Regarding `COc1cccc(/C(=C/C(N)=O)c2ccc(NC(=O)Nc3cc(C(F)(F)F)ccc3F)cc2)c1` [Example 2, (2E)-3-{4-[({[2-fluoro-5-(trifluoromethyl)phenyl]amino}carbonyl)amino]phenyl}-3-(3-methoxyphenyl)acrylamide], it took 945 nM to reach half-maximal inhibition (IC50) and the “VEGFR2 potency as shown” value is “excellent VEGFR2 potency”.
In the case of `COc1ccc(/C(=C/C(N)=O)c2ccc(NC(=O)Nc3cc(C(F)(F)F)ccc3F)cc2)cc1` [Example 3, (2E)-3-{4-[({[2-fluoro-5-(trifluoromethyl)phenyl]amino}carbonyl)amino]phenyl}-3-(4-methoxyphenyl)acrylamide], inhibition was half-maximal at 457 nM (IC50) and the “VEGFR2 potency as shown” value was “excellent VEGFR2 potency; also recorded: best VEGFR2 potency”.
For the molecule `NC(=O)/C=C(/c1ccccc1)c1cccc(NC(=O)Nc2cc(C(F)(F)F)ccc2F)c1` [Example 4, (2Z)-3-{3-[({[2-fluoro-5-(trifluoromethyl)phenyl]amino}carbonyl)amino]phenyl}-3-phenylacrylamide], the IC50 was > 10000 nM.
Regarding `NC(=O)/C=C/c1cccc(NC(=O)Nc2cc(C(F)(F)F)ccc2F)c1` [Example 5, (2E)-3-{3-[({[2-fluoro-5-(trifluoromethyl)phenyl]amino}carbonyl)amino]phenyl}acrylamide], the IC50 is > 10000 nM.
In the case of `NC(=O)/C=C/c1ccc(NC(=O)Nc2cc(C(F)(F)F)ccc2F)cc1` [Example 6, (2E)-3-{4-[({[2-fluoro-5-(trifluoromethyl)phenyl]amino}carbonyl)amino]phenyl}acrylamide], the half-inhibitory concentration (IC50) was > 10000 nM.
As to `NC(=O)/C=C\c1ccc(NC(=O)Nc2cc(C(F)(F)F)ccc2F)cc1` [Example 7, (2Z)-3-{4-[({[2-fluoro-5-(trifluoromethyl)phenyl]amino}carbonyl)amino]phenyl}acrylamide], it took 2790 nM to reach half-maximal inhibition (IC50) and the “VEGFR2 potency as shown” value was “excellent VEGFR2 potency”.
